Data on two compounds can be found in patent US11028087B2, “2,6-disubstituted-9-cyclopentyl-9H-purines, use thereof as medicaments, and pharmaceutical compositions” (UNIVERZITA PALACKEHO V OLOMOUCI, priority 2017, dated 2021).

What is called EC50 is the midpoint of the concentration-response curve. As a reminder, the IC50 is the point on the concentration scale where inhibition reaches its midpoint.

The subject of test [1] is EOL-1 (eosinophilic leukaemia, carrying the fusion FIP1L1-PDGFRA). The test is described as follows: Calcein AM cytotoxicity assay. The class given is cell-based. Conditions: Homo sapiens, EOL1, 72 h; EOL-1; Calcein AM, three days; read-out: EC50 values (μM) EOL-1. From the text:
(§1) Cytotoxicity of the compounds is the major property determining their anticancer effect in vivo. One of the parameters used, as the basis for cytotoxicity assays, is the integrity of cytoplasmic membrane of viable cells. For example, a microtiter assay, which uses acetomethoxy derivate of calcein (Calcein AM), is widely used for evaluation of cell proliferation and cytotoxicity. This assay is used in drug screening programs and in chemosensitivity testing. Intracellular esterases of viable cells convert calcein AM to green-fluorescent calcein of which signal corresponds to the number of viable cells in the culture.
(§2) We have been using the following cell lines: MV4-11 (acute myeloid leukemia, FLT3-ITD positive), MOLM-13 (acute myeloid leukemia, FLT3-ITD positive), THP-1 (acute myeloid leukemia, wt FLT3), U937 (monocytic leukemia, wt FLT3), EOL-1 (eosinophilic leukaemia, carrying the fusion FIP1L1-PDGFRA), H1703 (non-small cell lung carcinoma, PDGFRA amplification). […] K562 and MCF-7 cell lines were maintained in DMEM supplemented with 10% fetal bovine serum, penicilin (100 U/ml) and streptomycin (100 μg/ml). All cell lines were cultivated at 37° C. in 5% CO2. For cytotoxicity assays, cells were seeded in appropriate densities into 96 well plates and the next day tested compounds were added at various concentrations in triplicates. Three days after drug addition, Calcein AM solution (final concentration 1 μg/ml; Thermo Scientific, USA) was added into each well and incubated for 1 h.

Another test relates to K562. The test is described as follows: Calcein AM cytotoxicity assay. To be noted: Homo sapiens, 72 h; K562; Calcein AM, three days; read-out: EC50 values (μM) K562. The class given is cell-based.
Excerpt: as §1, §2

The subject of another test is MCF-7. Description: Calcein AM cytotoxicity assay. The class given is cell-based. Conditions: Homo sapiens, MCF7, 72 h; MCF-7; Calcein AM, three days; read-out: EC50 values (μM) MCF-7.
Excerpt: as §1, §2

Test [2] has as its system MOLM-13 (acute myeloid leukemia, FLT3-ITD positive). Description: Calcein AM cytotoxicity assay. The class given is cell-based. Conditions: Homo sapiens, 72 h; MOLM-13; Calcein AM, three days; read-out: EC50 values (μM) MOLM-13.
Excerpt: as §1, §2

The test system of test [3] is MV4-11 (acute myeloid leukemia, FLT3-ITD positive). Description: Calcein AM cytotoxicity assay. The format is cell-based. To be noted: Homo sapiens, 72 h; MV4-11; Calcein AM, three days after drug addition; read-out: EC50 values (μM) MV4-11.
Excerpt: as §1, §2

Test [4] relates to THP-1 (acute myeloid leukemia, wt FLT3). Description: Calcein AM cytotoxicity assay. Conditions: Homo sapiens, 72 h; THP-1; Calcein AM, three days; read-out: EC50 values (μM) THP-1. The class given is cell-based.
Excerpt: as §1, §2

The test system of test [5] is U937 (monocytic leukemia, wt FLT3). Description: Calcein AM cytotoxicity assay. Conditions: Homo sapiens, U-937, 72 h; U937; Calcein AM, three days; read-out: EC50 values (μM) U937. The format is cell-based.
Excerpt: as §1, §2

The test system of test [6] is Kasumi-1 (acute myeloid leukemia, KIT mutation Asn822Lys). The test is described as follows: Calcein AM cytotoxicity assay. The format is cell-based. Conditions: Homo sapiens, 72 h; Kasumi-1; Calcein AM, three days; read-out: EC50 values (μM) Kasumi-1.
Excerpt: as §1
We have been using the following cell lines: MV4-11 (acute myeloid leukemia, FLT3-ITD positive), MOLM-13 (acute myeloid leukemia, FLT3-ITD positive), THP-1 (acute myeloid leukemia, wt FLT3), U937 (monocytic leukemia, wt FLT3), EOL-1 (eosinophilic leukaemia, carrying the fusion FIP1L1-PDGFRA), H1703 (non-small cell lung carcinoma, PDGFRA amplification). They were maintained in RPMI-1640 supplemented with 10% fetal bovine serum, penicillin (100 U/ml) and streptomycin (100 μg/ml). Kasumi-1 (acute myeloid leukemia, KIT mutation Asn822Lys) cells were cultivated in RPMI-1640 supplemented with 15% fetal bovine serum, penicillin (100 U/ml) and streptomycin (100 μg/ml). K562 and MCF-7 cell lines were maintained in DMEM supplemented with 10% fetal bovine serum, penicilin (100 U/ml) and streptomycin (100 μg/ml). All cell lines were cultivated at 37° C. in 5% CO2. For cytotoxicity assays, cells were seeded in appropriate densities into 96 well plates and the next day tested compounds were added at various concentrations in triplicates. Three days after drug addition, Calcein AM solution (final concentration 1 μg/ml; Thermo Scientific, USA) was added into each well and incubated for 1 h. After this incubation period, fluorescence of the live cells was measured at 485 nm/538 nm (ex/em) with a Fluoroskan Ascent microplate reader (Labsystems).

The next test concerns the target T1, CDK1/Cyclin B (Homo sapiens, UniProt P06493).
T1 construct: made in house; host or cells: Sf9 insect cells, baculoviral infection
Description: Kinase inhibition assay with [γ-33P]ATP. The class given is biochemical. Conditions: histone H1, 15 μM ATP. On the procedure:
(§3) CDK1/Cyclin B and CDK2/Cyclin E kinases were produced in Sf9 insect cells via baculoviral infection and purified on a NiNTA column (Qiagen). CDK5/p35 and CDK7Cyclin H/MAT1, FLT3 WT, FLT3-ITD and FLT3 D835 were purchased from ProQinase GmbH. The kinase reactions were assayed with 1 mg/mL histone H1 (for CDK1, CDK2 and CDK5), (YSPTSPS)2KK peptide (for CDK7) or AGLT substrate (for FLT3) in the presence of 15/15/0.15/1.5/1 μM ATP (for CDK1/CDK2/CDK5/CDK7/FLT3), 0.05 μCi [γ-^33P]ATP and of the test compound in a final volume of 10 μL, all in a reaction buffer (60 mM HEPES-NaOH, pH 7.5, 3 mM MgCl2, 3 mM MnCl2, 3 μM Na-orthovanadate, 1.2 mM DTT, 2.5 μg/50 μl PEG20,000). The reactions were stopped by adding 5 μL of 3% aq H3PO4. Aliquots were spotted onto P-81 phosphocellulose (Whatman), washed 3× with 0.5% aq H3PO4 and finally air-dried.

The target in the next test is T2, CDK2/Cyclin E (Homo sapiens, UniProt P24941).
T2 construct: made in house; host or cells: Sf9 insect cells, baculoviral infection
The test is described as follows: Kinase inhibition assay with [γ-33P]ATP. The format is biochemical. To be noted: histone H1, 15 μM ATP; read-out: IC50 values (μM) CDK2. On the procedure: as §3

The next test concerns the target T3, CDK5/p35 (Homo sapiens, UniProt Q00535).
T3 construct: purchased ProQinase GmbH
Description: Kinase inhibition assay with [γ-33P]ATP. To be noted: histone H1, 0.15 μM ATP. The class given is biochemical. On the procedure: as §3

The target of a further test is T4, FLT3 WT (Homo sapiens, UniProt P36888).
T4 construct: purchased ProQinase GmbH
T4 sequence (P36888 27-993): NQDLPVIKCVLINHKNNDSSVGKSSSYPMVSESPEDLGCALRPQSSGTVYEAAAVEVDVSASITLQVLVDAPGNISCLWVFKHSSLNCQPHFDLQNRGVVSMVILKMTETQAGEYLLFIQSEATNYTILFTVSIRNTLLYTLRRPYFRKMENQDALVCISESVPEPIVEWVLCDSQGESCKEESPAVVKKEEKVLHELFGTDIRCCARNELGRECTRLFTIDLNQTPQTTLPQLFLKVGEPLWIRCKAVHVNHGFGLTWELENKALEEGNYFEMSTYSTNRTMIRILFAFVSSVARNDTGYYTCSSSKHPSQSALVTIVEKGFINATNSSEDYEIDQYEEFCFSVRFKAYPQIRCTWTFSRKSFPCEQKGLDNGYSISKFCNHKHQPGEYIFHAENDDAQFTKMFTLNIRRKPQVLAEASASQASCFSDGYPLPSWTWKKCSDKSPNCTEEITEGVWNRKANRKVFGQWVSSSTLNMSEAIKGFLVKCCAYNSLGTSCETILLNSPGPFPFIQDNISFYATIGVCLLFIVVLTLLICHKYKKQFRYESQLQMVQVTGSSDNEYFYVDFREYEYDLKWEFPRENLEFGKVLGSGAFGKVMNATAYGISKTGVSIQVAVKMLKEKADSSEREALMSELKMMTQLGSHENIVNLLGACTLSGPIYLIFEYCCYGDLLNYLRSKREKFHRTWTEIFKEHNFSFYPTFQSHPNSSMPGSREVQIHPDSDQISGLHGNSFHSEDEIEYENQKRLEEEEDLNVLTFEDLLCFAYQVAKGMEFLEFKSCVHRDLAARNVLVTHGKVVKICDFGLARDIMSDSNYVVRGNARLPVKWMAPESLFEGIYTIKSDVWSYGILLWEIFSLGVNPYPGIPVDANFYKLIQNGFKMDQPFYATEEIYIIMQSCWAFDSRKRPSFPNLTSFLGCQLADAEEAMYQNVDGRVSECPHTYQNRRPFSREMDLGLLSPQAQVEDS
Description: Kinase inhibition assay with [γ-33P]ATP. To be noted: AGLT substrate, 1 μM ATP. The format is biochemical. On the procedure: as §3

T3 sequence (Q00535 whole entry): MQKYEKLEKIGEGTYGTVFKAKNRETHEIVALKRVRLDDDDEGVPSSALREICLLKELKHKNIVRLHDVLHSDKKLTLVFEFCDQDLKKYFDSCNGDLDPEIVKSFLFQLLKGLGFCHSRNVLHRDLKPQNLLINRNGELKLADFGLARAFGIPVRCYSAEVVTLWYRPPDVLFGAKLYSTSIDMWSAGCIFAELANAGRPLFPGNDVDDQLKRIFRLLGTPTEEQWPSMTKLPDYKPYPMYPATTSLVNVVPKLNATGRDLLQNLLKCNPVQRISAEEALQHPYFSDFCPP
T3 sequence (Q15078 whole entry partner): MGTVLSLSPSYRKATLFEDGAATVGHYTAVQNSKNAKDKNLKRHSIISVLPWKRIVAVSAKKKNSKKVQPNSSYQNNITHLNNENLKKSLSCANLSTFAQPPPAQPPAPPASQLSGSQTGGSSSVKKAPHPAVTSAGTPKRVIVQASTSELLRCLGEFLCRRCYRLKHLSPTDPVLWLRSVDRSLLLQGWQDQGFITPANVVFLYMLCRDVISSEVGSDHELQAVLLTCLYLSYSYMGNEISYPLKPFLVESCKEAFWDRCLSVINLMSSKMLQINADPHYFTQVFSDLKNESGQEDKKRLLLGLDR
T1 sequence (P06493 whole entry, species assumed): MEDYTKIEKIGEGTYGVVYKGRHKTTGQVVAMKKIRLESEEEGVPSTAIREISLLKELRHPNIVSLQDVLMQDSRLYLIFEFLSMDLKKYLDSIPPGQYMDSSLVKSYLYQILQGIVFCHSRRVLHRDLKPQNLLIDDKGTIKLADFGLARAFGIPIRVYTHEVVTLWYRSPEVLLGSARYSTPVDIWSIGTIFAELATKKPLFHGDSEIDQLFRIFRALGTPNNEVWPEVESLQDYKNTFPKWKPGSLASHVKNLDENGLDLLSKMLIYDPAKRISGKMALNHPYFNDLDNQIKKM
T1 sequence (P14635 whole entry partner, species assumed): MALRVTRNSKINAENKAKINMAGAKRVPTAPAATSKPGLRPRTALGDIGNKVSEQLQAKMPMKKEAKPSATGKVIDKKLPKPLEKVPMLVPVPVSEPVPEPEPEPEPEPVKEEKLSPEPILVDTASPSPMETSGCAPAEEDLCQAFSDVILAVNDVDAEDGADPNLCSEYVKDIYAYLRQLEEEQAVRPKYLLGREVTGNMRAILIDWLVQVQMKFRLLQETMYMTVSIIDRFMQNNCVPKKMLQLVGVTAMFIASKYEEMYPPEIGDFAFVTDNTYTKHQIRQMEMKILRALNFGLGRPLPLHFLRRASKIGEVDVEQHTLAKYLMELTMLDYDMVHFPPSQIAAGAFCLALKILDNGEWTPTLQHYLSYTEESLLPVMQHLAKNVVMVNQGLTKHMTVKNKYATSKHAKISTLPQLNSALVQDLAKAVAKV

As to `NCCCCCCNc1nc(Nc2ccc(CN3CCOCC3)cc2)c2ncn(C3CCCC3)c2n1` [Compound 38], the EC50 in test [1] is 0.276 µM; with K562 it was 4.57 µM; in the test with MCF-7, 5.55 µM; in test [2], 0.064 µM; in test [3], 0.086 µM; in test [4] it was 3.59 µM. The results for the EC50 in test [5] and in test [6] were 2.92 µM and 1.23 µM, respectively. In addition, the IC50 against CDK1/Cyclin B was 6.16 µM; at CDK2/Cyclin E, 3.56 µM; on CDK5/p35, 8.16 µM; against FLT3 WT, 0.021 µM.

For `NCCCCCNc1nc(Nc2ccc(CN3CCOCC3)cc2)c2ncn(C3CCCC3)c2n1` [Compound 267], the EC50 was 0.071 µM in test [1]; 1.79 µM with K562; 2.27 µM in the test with MCF-7; 0.02 µM in test [2]; 0.032 µM in [3]; 2.42 µM in test [4]. Further, the figures for the EC50 in [5] and in test [6] were 3.63 µM and 1.25 µM, respectively. In addition, the IC50 worked out at 6.05 µM at CDK1/Cyclin B, 2.04 µM at CDK2/Cyclin E, 3.71 µM on CDK5/p35 and 0.025 µM on FLT3 WT.
